Values quoted from earlier work in patent US20220143126A1, “SYNERGISTIC COMBINATION OF PHYTOACTIVES” (priority 2019, published 2022).

Conditions: rats, concomitant administration of curcumin with piperine

SMILES: COc1cc(/C=C/C(=O)CC(=O)/C=C/c2ccc(O)c(OC)c2)ccc1O [curcumin]
- increase in bioavailability: 150%
